Results on five compounds are retold here after ChEMBL document CHEMBL1129225, “Synthesis of 11,13-bridged progestational steroids” (1997).

Molecules are shown by their SMILES. Active and inactive are the calls of the source. The rule behind the calls is not given here.

The first assay addresses T1, Progesterone receptor (Homo sapiens) (UniProt P06401).
T1 sequence (whole entry): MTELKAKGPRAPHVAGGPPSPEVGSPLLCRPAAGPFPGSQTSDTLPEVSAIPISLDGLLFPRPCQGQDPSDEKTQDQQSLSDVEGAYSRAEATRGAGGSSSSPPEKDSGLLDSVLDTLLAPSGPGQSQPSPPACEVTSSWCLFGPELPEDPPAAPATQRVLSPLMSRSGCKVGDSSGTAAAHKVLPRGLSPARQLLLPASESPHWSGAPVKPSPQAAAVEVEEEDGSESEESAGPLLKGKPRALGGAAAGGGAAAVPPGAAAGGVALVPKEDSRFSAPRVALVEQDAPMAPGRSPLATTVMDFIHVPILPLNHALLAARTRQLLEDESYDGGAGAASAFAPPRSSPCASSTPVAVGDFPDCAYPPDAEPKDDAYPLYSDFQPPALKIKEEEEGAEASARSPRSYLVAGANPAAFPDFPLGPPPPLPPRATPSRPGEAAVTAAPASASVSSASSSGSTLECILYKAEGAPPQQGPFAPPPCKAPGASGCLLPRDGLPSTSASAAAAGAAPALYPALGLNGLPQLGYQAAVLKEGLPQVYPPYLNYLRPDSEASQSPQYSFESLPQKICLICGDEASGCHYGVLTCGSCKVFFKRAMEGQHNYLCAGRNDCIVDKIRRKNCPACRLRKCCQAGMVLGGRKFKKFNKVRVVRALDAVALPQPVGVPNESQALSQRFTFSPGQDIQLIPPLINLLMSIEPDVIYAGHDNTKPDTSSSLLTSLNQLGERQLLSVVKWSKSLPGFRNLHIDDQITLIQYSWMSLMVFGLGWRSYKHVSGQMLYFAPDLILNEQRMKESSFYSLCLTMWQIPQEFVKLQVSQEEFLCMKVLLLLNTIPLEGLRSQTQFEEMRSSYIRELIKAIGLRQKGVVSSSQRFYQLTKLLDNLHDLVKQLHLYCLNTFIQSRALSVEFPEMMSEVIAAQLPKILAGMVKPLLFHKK
In words: Relative binding affinity to progesterone receptor of MCF-7 cytosol; No competitive binding.
As for `C#C[C@]1(O)CCC2C3CCC4=CC(=O)CCC4C3[C@@H]3C[C@@]21CO3` (stereo partly specified), the “relative binding affinity (RBA)” value was “inactive”.

In a further assay the test system is Oryctolagus cuniculus. In words: In vivo activity using McPhail test after oral dose. The format is functional.
For the compound `C#C[C@]1(O)CCC2C3CCC4=CC(=O)CCC4C3[C@H]3CC[C@]21C3` (stereo partly specified), the ED2 came out at 0.032 mg/kg.

`C#C[C@]1(O)CCC2C3CCC4=CC(=O)CCC4C3[C@H]3C=C[C@]21C3` (stereo partly specified) yielded an ED2 above 0.125 mg/kg.

`C#C[C@]1(O)CC[C@H]2[C@@H]3CCC4=CC(=O)CC[C@@H]4[C@H]3CC[C@@]21C` [NORETHINDRONE] displayed an ED2 of 0.5 mg/kg.

`C#C[C@]1(O)CCC2C3CCC4=CC(=O)CCC4C3[C@@H]3C[C@@]21CO3` (stereo partly specified) returned an ED2 above 4 mg/kg.

`C#C[C@]1(O)CCC2C3CCC4=CC(=O)CCC4C3[C@@H](C)CC21C` (stereo partly specified) gave an ED2 of 0.015 mg/kg.
